Laboratory results as given in the NIST ThermoML archive (doi:10.1021/acs.jced.5b00049).

Conditions: Liquid, Buoyancy - hydrostatic balance with magnetic suspension - one sinker

CCCCCCCCCCCCCC [tetradecane]
Conditions | mass density [kg/m3]
313.13 K, 16040 kPa | 760.35
313.15 K, 14050 kPa | 759.03
313.15 K, 18060 kPa | 761.65
313.17 K, 19040 kPa | 762.28
313.19 K, 10020 kPa | 756.25
313.23 K, 12040 kPa | 757.62
323.14 K, 14050 kPa | 752.38
323.18 K, 12040 kPa | 750.93
323.18 K, 16070 kPa | 753.74
323.23 K, 18060 kPa | 755.07
323.25 K, 19080 kPa | 755.76
323.26 K, 10000 kPa | 749.44
333.13 K, 18050 kPa | 748.61
333.13 K, 19060 kPa | 749.31
333.14 K, 10050 kPa | 742.64
333.16 K, 12040 kPa | 744.14
333.16 K, 16060 kPa | 747.18
333.28 K, 14060 kPa | 745.66
343.31 K, 16030 kPa | 740.68
343.31 K, 19040 kPa | 742.92
343.32 K, 10040 kPa | 736
343.32 K, 12050 kPa | 737.59
343.34 K, 18020 kPa | 742.16
343.35 K, 14070 kPa | 739.16
353.48 K, 16030 kPa | 734.17
353.5 K, 18010 kPa | 735.7
353.51 K, 19050 kPa | 736.41
353.58 K, 12050 kPa | 730.83
353.63 K, 10020 kPa | 729.05
353.66 K, 14040 kPa | 732.42
